From patent US20160244755A1, “TREATING DISEASES ASSOCIATED WITH PGC1-ALPHA BY MODULATING MICRORNAS MIR-130A AND MIR-130B” (ACADEMIA SINICA;, priority 2013, published 2016)
Entries after “also recorded” stand apart in the source; their conditions may differ. Where two headings read alike, the source gives them in different places.

What was measured:
Assay type in all cases: cell-based, human
HepG2 cells = assay: measurement of glucose production in cell culture; set-up: glucose production: dose or concentration left out as unconfirmed
Procedure: Rosiglitazone and GW9662 were from Sigma. HepG2 and Huh7 cells were seeded in 6-well tissue culture plates at 5×10, Quasdorff, M. et al. Journal of viral hepatitis 17, 527-536 (2010) cells/well. At 24 h post-transfection, Rosiglitazone or GW9662 in 0.1% DMSO was added to medium. Culture medium was changed ever two days before harvest.
The glucose level of HBV transgenic mice was measured using a kit of DRI-CHEM SLIDE GLU-PIII (FUJIFILM, JAPAN). Ten microliters of mouse serum was deposited on a FUJI DRI-CHEM SLIDE GLU-PIII. Glucose oxidase (GOD) catalyzes the oxidization of sample glucose to generate hydrogen peroxide which then reacts with dye precursors and forms red dye. The optical reflection density was measured at 505 nm by the FUJI DRI-CHEM analyzer and converted into the glucose concentration […]. For the measurement of glucose concentration in cell culture, HBV producing cells (HepG2 and Q7 cells) were treated with PPARγ antagonist, GW9662 at indicated concentrations. Twenty-four hours before glucose measurement, the medium was replaced with 1 ml of glucose-free DMEM, supplemented with 2 mM sodium pyruvate. After 16 hrs incubation, 50 μl of medium was collected and the glucose concentration (mM) was measured using the glucose colorimetric assay (Biovision).

miR-130a = miR-130a expression in PPARγ-expressing HepG2 cell lines (stem-loop qPCR); settings: stable PPARγ-expressing HepG2 cell lines, U6 snRNA internal control
Procedure: Rosiglitazone and GW9662 were from Sigma. […] At 24 h post-transfection, Rosiglitazone or GW9662 in 0.1% DMSO was added to medium. Culture medium was changed ever two days before harvest.
Briefly, 100 ng RNAs were reverse transcribed by specific stem-loop primer and further analyzed by Taqman real-time PCR assay using default setting. […] Data were analyzed by Applied Biosystems 7500 software V2.0.1.

PGC1α mRNA = PGC1α mRNA in stable miR-130a expressing cell lines (Northern blot, RT-qPCR); settings: stable miR-130a expressing HepG2 cell lines
Procedure: (§1) Briefly, 2 μg of total RNA was reverse transcribed into cDNA using random primers and High Capacity cDNA Reverse Transcription kit (Applied Biosystem) at 37° C. for 120 minutes. The cDNA product was then diluted 100 times for real-time PCR analysis using Power SYBR Green PCR master mix (Applied Biosystem), and the default condition in a 20 μl reaction volume by Applied Biosystems 7500 Real-Time PCR System. Data were analyzed by relative quantification methods (AACt methods) using 7500 software V2.0.1.
(§2) HBV core particle-associated DNA, total cellular cytoplasmic RNA, and microRNA were analyzed by Northern blot as described previously. Chua, P. K., et al. Journal of virology 84, 2340-2351 (2010), Le Pogam, S., et al., Journal of virology 79, 1871-1887 (2005).
(§3) Approximately one million Huh7 and HepG2 cells were transiently transfected by 3 μg plasmid DNA (pSuper and pSuper-miR-130a) with Polyjet (SignaGen), followed by G418 selection for three weeks. The G418-resistant colonies were pooled together.

PPARγ mRNA = PPARγ mRNA in stable miR-130a expressing cell lines (Northern blot, RT-qPCR); settings: stable miR-130a expressing HepG2 cell lines
Procedure: as §1, §2, §3

PGC1α = PGC1α protein in stable miR-130a expressing cells (Western blot)
Text: (§4) Anti-HBc (Dako), anti-PPARγ (Santa Cruz), anti-GAPDH, anti-PKLR, anti-G6Pase, anti-tubulin, anti-adiponectin (GeneTex, Taiwan), anti-PGC1α (Origene), anti-PCK1 (Abnova), anti-GCK (Biovision), Secondary antibodies include mouse anti-rabbit-HRP, goat anti-mouse-HRP (GeneTex, Taiwan) and donkey anti-goat-HRP (Santa Cruz).
(§5) Native agarose gel electrophoresis and Western blot for detecting HBV core particles were as described. Chua, P. K., et al. Journal of virology 84, 2340-2351 (2010),
as §3

PPARγ = PPARγ protein in stable miR-130a expressing cells (Western blot)
Text: as §4, §5, §3

adiponectin [1] = assay: adiponectin protein in stable miR-130a expressing cells (Western blot)
Text: as §4, §5, §3

adiponectin [2] = assay: secreted adiponectin ELISA, miR-130a expressing cell lines
Procedure: The concentration of secreted adiponectin was measured by ELISA (Biovision). ELISA of HBsAg and HBeAg was from General Biologicals Co., Taiwan.
as §3

SP1 = SP1 protein in stable miR-130a expressing HepG2 cell lines (Western blot)
Procedure: as §5, §3

PPARα = PPARα protein in stable miR-130a expressing HepG2 cell lines (Western blot)
Procedure: as §5, §3

CEBPb = CEBPb protein in stable miR-130a expressing HepG2 cell lines (Western blot)
Procedure: as §5, §3

HNF4 = HNF4 protein in stable miR-130a expressing HepG2 cell lines (Western blot)
Procedure: as §5, §3

[3] = test system: 3′ UTR of PGC1α (NM_013261); assay: luciferase reporter cotransfection assay, 3′ UTR of PGC1α; settings: for luciferase activity, reporter with 3′ UTR of PGC1α: reporter cotransfection assay
Text: (§6) Assay for 3′ UTR or enhancer/promoter was as described previously. Chen, H. L., et al., PloS one 7, e34116 (2012).

[4] = test system: 3′ UTR of PPARγ (NM_005037); assay: luciferase reporter cotransfection assay, 3′ UTR of PPARγ
Text: as §6

3′ UTR of PGC1α = assay: compensatory mutagenesis luciferase cotransfection assay, PGC1α 3′UTR
Procedure: as §6
To distinguish between a direct and an indirect mechanism of miR-130a on reducing PGC1α mRNA, a reporter assay was performed using 3′UTR from either PPARγ or PGC1α. […] Next, compensatory mutations were introduced into the seed sequences of miR-130a and its evolutionarily conserved target site of PGC1α (FIG. 10). […] In a dose-dependent manner, miR-130a could reduce, while LNA-miR-130a could increase, the luciferase activity of a reporter containing the 3′UTR of PGC1α (FIG. 11).

G6Pase mRNA = G6Pase mRNA in stable miR-130a expressing HepG2 cells (Northern blot)
Procedure: as §2, §3

PEPCK mRNA = PEPCK mRNA in stable miR-130a expressing HepG2 cells (Northern blot)
Procedure: as §2, §3

G6Pase = G6Pase protein in miR-130a expressing hepatocytes (Western blot)
Text: as §4, §5, §3

PEPCK = PEPCK protein in miR-130a expressing hepatocytes (Western blot)
Text: as §4, §5, §3

glucokinase (GCK) = glucokinase (GCK) protein in stable miR-130a expressing HepG2 cells (Western blot)
Text: as §4, §5, §3

pyruvate kinase (PKLR) = pyruvate kinase (PKLR) protein in stable miR-130a expressing cells (Western blot); settings: stable miR-130a expressing Huh? cells
Text: as §4, §5, §3

GCK mRNA = GCK mRNA in stable miR-130a expressing cells (RT-qPCR)
Procedure: as §1, §3

PKLR mRNA = PKLR mRNA in stable miR-130a expressing cells (RT-qPCR)
Procedure: as §1, §3

Which results are given for O=C(Nc1ccccc1)c1cc([N+](=O)[O-])ccc1Cl [GW9662]?
glucose production (HepG2 cells; HepG2 cells, irrespective of HBV-producing status): further increased; also recorded: increase; expression of miR-130a (miR-130a): not

“miR-130a: human microRNA comprising CAGUGCAAUGUUAAAAGGGCAU (SEQ ID NO:1); expressed from pSuper-miR-130a in stable cell lines” was tested. Which “PGC1α mRNA” value (PGC1α mRNA) did it give?
The value was “reduction”.

What about the “PPARγ mRNA” value (PPARγ mRNA) of the same compound?
The value was “reduction”.

And the PGC1α protein (PGC1α)?
Its PGC1α protein is “reduction”.

And the PPARγ protein (PPARγ)?
The PPARγ protein was “reduction”.

And the adiponectin protein (adiponectin [1])?
Its adiponectin protein is “reduction”.

And the secreted adiponectin (adiponectin [2])?
Its secreted adiponectin is “significantly reduced; also recorded: reduction”.

And the “protein level of SP1” value (SP1)?
The value was “No appreciable difference”.

What about the “protein level of PPARα” value (PPARα) of the same compound?
The value was “No appreciable difference”.

And the “protein level of CEBPb” value (CEBPb)?
The value was “No appreciable difference”.

What about the “protein level of HNF4” value (HNF4) of the same compound?
Its value is “No appreciable difference”.

What about the “PGC1α 3′UTR luciferase reporter activity with increasing amounts” value ([3]; dose response, co-transfection) of the same compound?
Its value is “reduce; also recorded: decreasing reporter activity in a dose response manner”.

And the “luciferase activity, reporter with 3′ UTR of PGC1α” value [3]?
Its value is “functional interaction”.

What about the “luciferase activity, reporter with 3′ UTR of PGC1α” value ([3]; listed as MiR-130a) of the same compound?
The value was “significantly reduced”.

What about the “luciferase activity, reporter with 3′ UTR of PPARγ” value [4] of the same compound?
Its value is “functional interaction”.

And the “luciferase activity, reporter with 3′ UTR of PPARγ” value ([4]; listed as MiR-130a)?
The value was “significantly reduced”.

What about the “direct targeting of 3′ UTR of PGC1α by compensatory mutagenesis” value (3′ UTR of PGC1α; p<0.05) of the same compound?
The value was “directly target”.

And the “G6Pase mRNA expression” value (G6Pase mRNA)?
Its value is “reductions; also recorded: reduced”.

What about the “PEPCK mRNA expression” value (PEPCK mRNA) of the same compound?
The value was “reductions; also recorded: reduced”.

And the G6Pase protein expression (G6Pase)?
Its G6Pase protein expression is “reductions; also recorded: Reduced”.

What about the PEPCK protein expression (PEPCK) of the same compound?
The PEPCK protein expression was “reductions; also recorded: Reduced”.

What about the “glucokinase (GCK) protein level” value (glucokinase (GCK)) of the same compound?
Its value is “not reduced but increased; also recorded: increased level”.

What about the “pyruvate kinase (PKLR) protein level” value (pyruvate kinase (PKLR)) of the same compound?
The value was “not reduced but increased; also recorded: increased level”.

And the “GCK specific mRNA level” value (GCK mRNA)?
The value was “increased”.

What about the “PKLR specific mRNA level” value (PKLR mRNA) of the same compound?
Its value is “increased”.

What about the glucose level (HepG2 cells; control vs miR-130a producing cells) of the same compound?
The glucose level was “No significant difference”.

For “mutant miR-130a: miR-130a with compensatory mutations in the seed sequence, SEQ ID NO: 69 (CUGAGCAAUGUUAAAAGGGCAU; listed as RNA, chemistry not given here) [reference compound]”, which “luciferase activity, mutant PGC1α 3′UTR target site” value (3′ UTR of PGC1α; combination of mutant miR-130a and mutant PGC1α, cotransfection) is on record?
The value was “restore the inhibitory effect”.
